In patent US10800792B2, “Inhibitors of Bruton's tyrosine kinase and method of their use” (JANSSEN PHARMACEUTICA NV, priority 2015, dated 2020):

Target: unphosphorylated-BTK kinase domain (UP-BTK), GST-tagged human BTK (389-659aa) (Homo sapiens (Human), UniProt Q06187)
Experiment: BTK kinase Lanthascreen binding assay
Conditions: pIC50 = negative log of the IC50 in molar; 60 minutes incubation, 50 nM Tracer 236
Outline: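 Tracer-displacement binding assay against the non-phosphorylated enzyme, read by Lanthascreen. Reported: pIC50.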

Sequence of unphosphorylated-BTK kinase domain (UP-BTK), GST-tagged human BTK (389-659aa) (Q06187 389-659): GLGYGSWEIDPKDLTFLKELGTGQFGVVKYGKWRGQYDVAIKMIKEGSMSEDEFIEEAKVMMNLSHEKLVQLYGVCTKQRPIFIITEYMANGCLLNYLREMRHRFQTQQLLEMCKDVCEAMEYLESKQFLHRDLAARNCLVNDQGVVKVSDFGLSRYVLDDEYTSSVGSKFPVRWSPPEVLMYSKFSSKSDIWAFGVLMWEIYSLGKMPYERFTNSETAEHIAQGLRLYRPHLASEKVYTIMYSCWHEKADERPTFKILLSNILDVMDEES

Row | SMILES | BTK_I_binding pIC50
1 | Cc1cc(Oc2ccccc2)ccc1N1C(=O)Nc2c(C(=O)N[C@H]3CNC[C@H]3O)sc3nccc1c23 [Example 241, N-((3S,4R)-4-hydroxypyrrolidin-3-yl)-5-(2-methyl-4-phenoxyphenyl)-4-oxo-4,5-dihydro-3H-1-thia-3,5,8-triazaacenaphthylene-2-carboxamide] | 6.7
2 | Cc1cc(Oc2ccccc2C(F)(F)F)ccc1N1C(=O)Nc2c(C(=O)N[C@@H]3CCCN(C)C3)sc3nccc1c23 [Example 242, (R)-5-(2-Methyl-4-(2-(trifluoromethyl)phenoxy)phenyl)-N-(1-methylpiperidin-3-yl)-4-oxo-4,5-dihydro-3H-1-thia-3,5,8-triazaacenaphthylene-2-carboxamide] | 6.7
3 | Cc1cc(Oc2ccccc2)ccc1N1C(=O)Nc2c(C(=O)N[C@H]3CN(C)C[C@@H]3O)sc3nccc1c23 [Example 243, N-((3S,4S)-4-Hydroxy-1-methylpyrrolidin-3-yl)-5-(2-methyl-4-phenoxyphenyl)-4-oxo-4,5-dihydro-3H-1-thia-3,5,8-triazaacenaphthylene-2-carboxamide] | 6.6
4 | CO[C@H]1CN(C)C[C@@H]1NC(=O)c1sc2nccc3c2c1NC(=O)N3c1ccc(Oc2ccccc2)cc1C [Example 244, N-((3S,4S)-4-Methoxy-1-methylpyrrolidin-3-yl)-5-(2-methyl-4-phenoxyphenyl)-4-oxo-4,5-dihydro-3H-1-thia-3,5,8-triazaacenaphthylene-2-carboxamide] | 6.6
5 | CO[C@H]1CNC[C@@H]1NC(=O)c1sc2nccc3c2c1NC(=O)N3c1ccc(Oc2ccccc2)cc1C [Example 245, N-((3S,4S)-4-Methoxypyrrolidin-3-yl)-5-(2-methyl-4-phenoxyphenyl)-4-oxo-4,5-dihydro-3H-1-thia-3,5,8-triazaacenaphthylene-2-carboxamide] | 6.6
6 | COCCC(=O)N1CC(NC(=O)c2sc3nccc4c3c2NC(=O)N4c2ccc(Oc3ccccc3)cc2C)C1 [Example 246, N-(1-(3-Methoxypropanoyl)azetidin-3-yl)-5-(2-methyl-4-phenoxyphenyl)-4-oxo-4,5-dihydro-3H-1-thia-3,5,8-triazaacenaphthylene-2-carboxamide] | 6.5
7 | Cc1cc(Oc2ccccc2)ccc1N1C(=O)Nc2c(C(=O)N[C@@H]3CCCN(C(=O)/C=C/C(C)C)C3)sc3nccc1c23 [Example 247, (R,E)-5-(2-Methyl-4-phenoxyphenyl)-N-(1-(4-methylpent-2-enoyl)piperidin-3-yl)-4-oxo-4,5-dihydro-3H-1-thia-3,5,8-triazaacenaphthylene-2-carboxamide] | 6.5
8 | Cc1cc(Oc2ccccc2)ccc1N1C(=O)Nc2c(C(=O)NC3CN(C)C3)sc3nccc1c23 [Example 248, 5-(2-Methyl-4-phenoxyphenyl)-N-(1-methylazetidin-3-yl)-4-oxo-4,5-dihydro-3H-1-thia-3,5,8-triazaacenaphthylene-2-carboxamide] | 6.5
9 | Cc1cc(OC2CCCCC2)ccc1N1C(=O)Nc2c(C(=O)N[C@@H]3CCCN(C)C3)sc3nccc1c23 [Example 250, (R)-5-(4-(Cyclohexyloxy)-2-methylphenyl)-N-(1-methylpiperidin-3-yl)-4-oxo-4,5-dihydro-3H-1-thia-3,5,8-triazaacenaphthylene-2-carboxamide] | 6.4
10 | CCN1CC(NC(=O)c2sc3nccc4c3c2NC(=O)N4c2ccc(Oc3ccccc3)cc2C)C1 [Example 251, N-(1-Ethylazetidin-3-yl)-5-(2-methyl-4-phenoxyphenyl)-4-oxo-4,5-dihydro-3H-1-thia-3,5,8-triazaacenaphthylene-2-carboxamide] | 6.4
11 | Cc1cc(Oc2ccccc2)ccc1N1C(=O)Nc2c(C(=O)NC3CNC3)sc3nccc1c23 [Example 252, N-(azetidin-3-yl)-5-(2-methyl-4-phenoxyphenyl)-4-oxo-4,5-dihydro-3H-1-thia-3,5,8-triazaacenaphthylene-2-carboxamide] | 6.4
12 | C=CC(=O)N1CCC[C@@H](NC(=O)c2sc3nccc4c3c2NC(=O)N4c2ccc(OC)cc2)C1 [Example 254] | 6.6
13 | C=CC(=O)N1CCC[C@@H](NC(=O)c2sc3nccc4c3c2NC(=O)N4c2ccc(F)cc2)C1 [Example 255, (R)—N-(1-Acryloylpiperidin-3-yl)-5-(4-fluorophenyl)-4-oxo-4,5-dihydro-3H-1-thia-3,5,8-triazaacenaphthylene-2-carboxamide] | 6.6
14 | C=CC(=O)N1CCC[C@@H](NC(=O)c2sc3nccc4c3c2NC(=O)N4c2ccc(Cl)cc2)C1 [Example 256, (R)—N-(1-Acryloylpiperidin-3-yl)-5-(4-chlorophenyl)-4-oxo-4,5-dihydro-3H-1-thia-3,5,8-triazaacenaphthylene-2-carboxamide] | 6.6
15 | C=CC(=O)N1CCC[C@@H](NC(=O)c2sc3nccc4c3c2NC(=O)N4c2ccccc2)C1 [Example 257, (R)—N-(1-Acryloylpiperidin-3-yl)-4-oxo-5-phenyl-4,5-dihydro-3H-1-thia-3,5,8-triazaacenaphthylene-2-carboxamide] | 6.4
16 | Cc1cc(Oc2ccccc2)ccc1N1C(=O)Nc2c(C(=O)NC3CCNC(C)C3)sc3nccc1c23 (stereo not drawn) [Example 258, 5-(2-methyl-4-phenoxyphenyl)-N-(2-methylpiperidin-4-yl)-4-oxo-4,5-dihydro-3H-1-thia-3,5,8-triazaacenaphthylene-2-carboxamide] | 6.5
17 | CO[C@@H]1C[C@@H](NC(=O)c2sc3nccc4c3c2NC(=O)N4c2ccc(Oc3ccccc3)cc2)CN(C)C1 [Example 259, N-((3R,5R)-5-Methoxy-1-methylpiperidin-3-yl)-4-oxo-5-(4-phenoxyphenyl)-4,5-dihydro-3H-1-thia-3,5,8-triazaacenaphthylene-2-carboxamide] | 6.5
18 | CC(C)=C(Cl)C(=O)N1CCC[C@@H](NC(=O)c2sc3nccc4c3c2NC(=O)N4c2ccc(Oc3ccccc3)cc2C)C1 [Example 260, (R)—N-(1-(2-chloro-3-methylbut-2-enoyl)piperidin-3-yl)-5-(2-methyl-4-phenoxyphenyl)-4-oxo-4,5-dihydro-3H-1-thia-3,5,8-triazaacenaphthylene-2-carboxamide] | 6.5
19 | C/C=C(\F)C(=O)N1CCC[C@@H](NC(=O)c2sc3nccc4c3c2NC(=O)N4c2ccc(Oc3ccccc3)cc2C)C1 [Example 261, (R,Z)—N-(1-(2-Fluorobut-2-enol)piperidin-3-yl)-5-(2-methyl-4-phenoxyphenyl)-4-oxo-4,5-dihydro-3H-1-thia-3,5,8-triazaacenaphthylene-2-carboxamide] | 6.5
20 | CC(C)=C(F)C(=O)N1CCC[C@@H](NC(=O)c2sc3nccc4c3c2NC(=O)N4c2ccc(Oc3ccccc3)cc2C)C1 [Example 263, (R)—N-(1-(2-Fluoro-3-methylbut-2-enoyl)piperidin-3-yl)-5-(2-methyl-4-phenoxyphenyl)-4-oxo-4,5-dihydro-3H-1-thia-3,5,8-triazaacenaphthylene-2-carboxamide] | 6.4
21 | C=CC(=O)N1CC[C@@H](NC(=O)c2sc3nccc4c3c2NC(=O)N4c2ccc(S(F)(F)(F)(F)F)cc2C)C1 [Example 264, (R)—N-(1-Acryloylpyrrolidin-3-yl)-5-(2-methyl-4-(pentafluorothio)phenyl)-4-oxo-4,5-dihydro-3H-1-thia-3,5,8-triazaacenaphthylene-2-carboxamide] | 6.4
22 | Cc1cc(Oc2ccccc2)ccc1N1C(=O)Nc2c(C(=O)NC[C@@H]3CCCN3C)sc3nccc1c23 [Example 265, (S)-5-(2-Methyl-4-phenoxyphenyl)-N-((1-methylpyrrolidin-2-yl)methyl)-4-oxo-4,5-dihydro-3H-1-thia-3,5,8-triazaacenaphthylene-2-carboxamide] | 6.4
23 | Cc1cc(Oc2ccccc2)ccc1N1C(=O)Nc2c(C(=O)N[C@@H]3C[C@H](O)CN(C)C3)sc3nccc1c23 [Example 266, N-((3R,5S)-5-Hydroxy-1-methylpiperidin-3-yl)-5-(2-methyl-4-phenoxyphenyl)-4-oxo-4,5-dihydro-3H-1-thia-3,5,8-triazaacenaphthylene-2-carboxamide] | 6.3
24 | CO[C@@H]1CNC[C@H](NC(=O)c2sc3nccc4c3c2NC(=O)N4c2ccc(Oc3ccccc3)cc2C)C1 [Example 268, N-((3R,5S)-5-Methoxypiperidin-3-yl)-5-(2-methyl-4-phenoxyphenyl)-4-oxo-4,5-dihydro-3H-1-thia-3,5,8-triazaacenaphthylene-2-carboxamide] | 6.3
25 | Cc1cc(Oc2ccccc2)ccc1N1C(=O)Nc2c(C(=O)NC[C@@H]3CCCN3)sc3nccc1c23 [Example 269, (S)-5-(2-Methyl-4-phenoxyphenyl)-4-oxo-N-(pyrrolidin-2-ylmethyl)-4,5-dihydro-3H-1-thia-3,5,8-triazaacenaphthylene-2-carboxamide] | 6.3
26 | C=CC(=O)N1CC[C@@H](NC(=O)c2sc3nccc4c3c2NC(=O)N4c2ccc(OC3CCOCC3)cc2C)C1 [Example 270, (R)—N-(1-Acryloylpyrrolidin-3-yl)-5-(2-methyl-4-((tetrahydro-2H-pyran-4-yl)oxy)phenyl)-4-oxo-4,5-dihydro-3H-1-thia-3,5,8-triazaacenaphthylene-2-carboxamide] | 6.3
27 | C=CC(=O)N1CCC[C@@H](NC(=O)c2sc3nccc4c3c2NC(=O)N4c2ccc(C)cc2)C1 [Example 271, (R)—N-(1-Acryloylpiperidin-3-yl)-4-oxo-5-(p-tolyl)-4,5-dihydro-3H-1-thia-3,5,8-triazaacenaphthylene-2-carboxamide] | 6.3
